We go through 50 compounds from US11622937B2, “Polyphenolic polymer to make water-insoluble molecules become water-soluble” (priority 2015, dated 2023).

Structures can show the parent of a compound that is named as a salt.

The conditions of data set [1]: cited from earlier work.
Data set [2] is described as follows: Solubility with Polyphenolic Polymer in water. The conditions noted are these: molecule formulated with Polyphenolic Polymer.

With `COc1ccc2c(c1)c(CC(=O)O)c(C)n2C(=O)c1ccc(Cl)cc1` [Indomethacin], the “Reported Solubility in water” value in data set [1] is recorded as “Insoluble”.
With `CCn1cc(C(=O)O)c(=O)c2cc(F)c(N3CCNCC3)cc21` [Norfloxacin(antibiotic), Norfloxacin], in data set [1], the “Reported Solubility in water” value is listed as “Insoluble”.
As for `C#Cc1cccc(Nc2ncnc3cc(OCCOC)c(OCCOC)cc23)c1` [Erlotinib Monohydrochloride], the “Reported Solubility in water” value in data set [1] was “Insoluble”. In addition, the “Solubility with Polyphenolic Polymer in water (more than 99%)” value (“Solubility … (more than 99%)” for short) in data set [2] is “Water Soluble”.
On to `CCCCCOC(=O)Nc1nc(=O)n([C@@H]2O[C@H](C)[C@@H](O)[C@H]2O)cc1F` [Capecitabine], for which the “Reported Solubility in water” value in data set [1] is reported as “Insoluble”. The “Solubility … (more than 99%)” value in data set [2] is on record as “Water Soluble”.
In the case of `Nc1nnc(-c2cccc(Cl)c2Cl)c(N)n1` [6-(2,3-Dichlorophenyl)-1,2,4-triazine-3,5-diamine], in data set [1], the “Reported Solubility in water” value was “Insoluble”.
`O=C1CCc2cc(OCCCCc3nnnn3C3CCCCC3)ccc2N1` [Cilostazol]: the “Reported Solubility in water” value in data set [1] is recorded as “Insoluble”. Further, the “Solubility … (more than 99%)” value in data set [2] is “Water Soluble”.
Turning to `CCC(C)n1ncn(-c2ccc(N3CCN(c4ccc(OCC5COC(Cn6cncn6)(c6ccc(Cl)cc6Cl)O5)cc4)CC3)cc2)c1=O` (centres unmarked) [Itraconazole], the “Reported Solubility in water” value in data set [1] is “Insoluble”. For the same compound, in data set [2], the “Solubility … (more than 99%)” value is reported as “Water Soluble”.
`CCCC1O[C@@H]2C[C@H]3[C@@H]4CCC5=CC(=O)C=C[C@]5(C)[C@H]4[C@@H](O)C[C@]3(C)[C@]2(C(=O)CO)O1` (some centres unmarked) [Budesonide, 98%, Budesonide]: the “Reported Solubility in water” value in data set [1] is listed as “Insoluble”. The “Solubility … (more than 99%)” value in data set [2] is listed as “Water Soluble”.
Take `C/C(=C\c1csc(C)n1)[C@@H]1C[C@@H]2O[C@@H]2CCC[C@H](C)[C@H](O)[C@@H](C)C(=O)C(C)(C)[C@@H](O)CC(=O)O1` [Epothilone A]: the “Solubility … (more than 99%)” value in data set [2] is recorded as “Water Soluble”.
As for `CC[C@H]1OC(=O)[C@H](C)[C@@H](O[C@H]2C[C@@](C)(OC)[C@@H](O)[C@H](C)O2)[C@H](C)[C@@H](O[C@@H]2O[C@H](C)C[C@H](N(C)C)[C@H]2O)[C@](C)(O)C[C@@H](C)CN(C)[C@H](C)[C@@H](O)[C@]1(C)O` [Azithromycin-dihydrate], the “Reported Solubility in water” value in data set [1] was “Insoluble”. Moreover, in data set [2], the “Solubility … (more than 99%)” value was “Water Soluble”.
Turning to `COc1ccccc1OCCNCC(O)COc1cccc2[nH]c3ccccc3c12` (centres unmarked) [Carvedilol], the “Reported Solubility in water” value in data set [1] is reported as “Insoluble”.
`COC(=O)[C@H](c1ccccc1Cl)N1CCc2sccc2C1` [Clopidogrel Sulfate]: the “Reported Solubility in water” value in data set [1] is on record as “Insoluble”.
For the compound `CC[C@H](C)C(=O)O[C@H]1C[C@H](O)C=C2C=C[C@H](C)[C@H](CC[C@@H](O)C[C@@H](O)CC(=O)O)[C@H]21` [Pravastatin Sodium], the “Reported Solubility in water” value in data set [1] is on record as “Insoluble”. Also, the “Solubility … (more than 99%)” value in data set [2] is on record as “Water Soluble”.
In the case of `CC(=O)O[C@@]12CO[C@@H]1C[C@H](O)[C@@]1(C)C(=O)[C@H](O)C3=C(C)[C@@H](OC(=O)[C@H](O)[C@@H](NC(=O)OC(C)(C)C)c4ccccc4)C[C@@](O)([C@@H](OC(=O)c4ccccc4)[C@H]21)C3(C)C` [Docetaxel], the “Reported Solubility in water” value in data set [1] is “Insoluble”. Also, in data set [2], the “Solubility … (more than 99%)” value was “Water Soluble”.
In the case of `CC[C@H]1OC(=O)[C@H](C)[C@@H](O[C@H]2C[C@@](C)(OC)[C@@H](O)[C@H](C)O2)[C@H](C)[C@@H](O[C@@H]2O[C@H](C)C[C@H](N(C)C)[C@H]2O)[C@](C)(OC)C[C@@H](C)C(=O)[C@H](C)[C@@H](O)[C@]1(C)O` [Clarithromycin], the “Reported Solubility in water” value in data set [1] is given as “Insoluble”. The “Solubility … (more than 99%)” value in data set [2] was “Water Soluble”.
Consider `Cc1ccc(-c2cc(C(F)(F)F)nn2-c2ccc(S(N)(=O)=O)cc2)cc1` [Celecoxib], for which the “Reported Solubility in water” value in data set [1] was “Insoluble”. Moreover, the “Solubility … (more than 99%)” value in data set [2] is given as “Water Soluble”.
On to `NC(N)=Nc1nc(CSCCC(N)=NS(N)(=O)=O)cs1` [Famotidine], for which the “Reported Solubility in water” value in data set [1] was “Insoluble”.
In the case of `Oc1ccc(C=Cc2cc(O)cc(O)c2)cc1` [Resveratrol], the “Reported Solubility in water” value in data set [1] is “Insoluble”.
For `O=c1c(O)c(-c2ccc(O)cc2)oc2cc(O)cc(O)c12` [Kaempferol], the “Reported Solubility in water” value in data set [1] is reported as “Insoluble”. In addition, the “Solubility … (more than 99%)” value in data set [2] is recorded as “Water Soluble”.
Consider `CO[C@H]1C[C@@H]2CC[C@@H](C)[C@@](O)(O2)C(=O)C(=O)N2CCCC[C@H]2C(=O)O[C@H]([C@H](C)C[C@@H]2CC[C@@H](O)[C@H](OC)C2)CC(=O)[C@H](C)/C=C(\C)[C@@H](O)[C@@H](OC)C(=O)[C@H](C)C[C@H](C)/C=C/C=C/C=C/1C` [Rapamycin], for which the “Reported Solubility in water” value in data set [1] is on record as “Insoluble”. Also, in data set [2], the “Solubility … (more than 99%)” value is given as “Water Soluble”.
Turning to `O=c1[nH]c2ccccc2n1CCCN1CCC(n2c(=O)[nH]c3cc(Cl)ccc32)CC1` [Domperidone], the “Reported Solubility in water” value in data set [1] is “Insoluble”.
As to `C[C@@H]1[C@H](O)[C@@H](C)/C=C/C=C/CC/C=C/C=C/C=C/C=C/C(O[C@H]2O[C@H](C)[C@@H](O)[C@H](N)[C@@H]2O)CC2O[C@](O)(CC(O)C(O)CCC(O)CC(O)CC(O)CC(=O)O[C@H]1C)CC(O)C2C(=O)O` (some centres unmarked) [Nystatin mycostatin], the “Solubility … (more than 99%)” value in data set [2] is given as “Water Soluble”.
As for `CO/N=C(\C(=O)N[C@@H]1C(=O)N2C(C(=O)O)=C(COC(C)=O)CS[C@H]12)c1csc(N)n1` [Cefotaxime], the “Reported Solubility in water” value in data set [1] was “Insoluble”.
On to `CCc1cccc2c3c([nH]c12)C(CC)(CC(=O)O)OCC3` (centres unmarked) [Etodolac], for which, in data set [1], the “Reported Solubility in water” value was “Insoluble”.
Take `CC1(C)S[C@@H]2[C@H](NC(=O)C(C(=O)O)c3ccccc3)C(=O)N2[C@H]1C(=O)O` (some centres unmarked) [Carbenicillin disodium]: the “Reported Solubility in water” value in data set [1] is “Insoluble”.
Take `Cn1cnc([N+](=O)[O-])c1Sc1ncnc2nc[nH]c12` [Azathioprine]: the “Reported Solubility in water” value in data set [1] is reported as “Insoluble”.
For `O=C(O)Cc1ccccc1Nc1c(Cl)cccc1Cl` [Diclofenac(pain), Diclofenac], the “Reported Solubility in water” value in data set [1] was “Insoluble”.
On to `C=CC(=O)N1CCC[C@@H](n2nc(-c3ccc(Oc4ccccc4)cc3)c3c(N)ncnc32)C1` [PCI-32765], for which the “Reported Solubility in water” value in data set [1] is “Insoluble”.
For the compound `Nc1ncn([C@@H]2O[C@H](CO)[C@@H](O)[C@H]2O)c(=O)n1` [Azacitidine (Vidaza), Azacitidine], the “Reported Solubility in water” value in data set [1] was “Insoluble”.
With `COC1=CC(=O)C[C@@H](C)[C@]12Oc1c(Cl)c(OC)cc(OC)c1C2=O` [Griseofulvin], in data set [1], the “Reported Solubility in water” value is “Insoluble”.
As for `CC(=O)O[C@H]1C(=O)[C@@]2(C)[C@H]([C@H](OC(=O)c3ccccc3)[C@]3(O)C[C@H](OC(=O)[C@H](O)[C@@H](NC(=O)c4ccccc4)c4ccccc4)C(C)=C1C3(C)C)[C@]1(OC(C)=O)CO[C@@H]1C[C@@H]2O` [Paclitaxel from Taxus Brevifolia, Paclitaxel], in data set [1], the “Reported Solubility in water” value is given as “Insoluble”.
For `COc1ccc(CCN2CCC(Nc3nc4ccccc4n3Cc3ccc(F)cc3)CC2)cc1` [Astemizole], the “Reported Solubility in water” value in data set [1] was “Insoluble”.
Consider `COc1cccc2c1C(=O)c1c(O)c3c(c(O)c1C2=O)C[C@@](O)(C(C)=O)C[C@@H]3O[C@H]1C[C@H](N)[C@H](O)[C@H](C)O1` [Daunorubicin hydrochloride], for which the “Reported Solubility in water” value in data set [1] is given as “Insoluble”.
Regarding `COc1cc([C@@H]2c3cc4c(cc3[C@@H](O[C@@H]3O[C@@H]5CO[C@@H](C)O[C@H]5[C@H](O)[C@H]3O)[C@H]3COC(=O)[C@H]23)OCO4)cc(OC)c1O` [Etoposide], the “Reported Solubility in water” value in data set [1] is given as “Insoluble”.
In the case of `C[C@@H]1CC[C@H]2[C@@H](C)C(=O)O[C@@H]3O[C@@]4(C)CC[C@@H]1[C@]32OO4` [Artemisinin], the “Reported Solubility in water” value in data set [1] is on record as “Insoluble”.
In the case of `COCCOC(=O)C1=C(C)NC(C)=C(C(=O)OC(C)C)C1c1cccc([N+](=O)[O-])c1` (centres unmarked) [Nimodipine], the “Reported Solubility in water” value in data set [1] is listed as “Insoluble”.
Regarding `COc1ccc2c(c1)c(CC(=O)OCC(=O)O)c(C)n2C(=O)c1ccc(Cl)cc1` [Acemetacin], the “Reported Solubility in water” value in data set [1] is reported as “Insoluble”.
As for `CN(C)CCC[C@@]1(c2ccc(F)cc2)OCc2cc(C#N)ccc21` [Escitalopram], the “Reported Solubility in water” value in data set [1] was “Insoluble”.
Regarding `C[C@]12C=CC(=O)C=C1CC[C@@H]1[C@@H]2C(=O)C[C@@]2(C)[C@H]1CC[C@]2(O)C(=O)CO` [Prednisone], the “Reported Solubility in water” value in data set [1] was “Insoluble”.
Turning to `CC(C)(C)NC(=O)[C@H]1CC[C@H]2[C@@H]3CC[C@H]4NC(=O)C=C[C@]4(C)[C@H]3CC[C@]12C` [Finasteride], the “Reported Solubility in water” value in data set [1] is recorded as “Insoluble”.
In the case of `Cc1cc2c(s1)Nc1ccccc1N=C2N1CCN(C)CC1` [Olanzapine], the “Reported Solubility in water” value in data set [1] is on record as “Insoluble”.
On to `CC[C@H](CC[C@@H](C)[C@H]1CC[C@H]2[C@@H]3CC=C4C[C@@H](O)CC[C@]4(C)[C@H]3CC[C@]12C)C(C)C` [Beta-sitosterol], for which the “Solubility … (more than 99%)” value in data set [2] is “Water Soluble”.
Regarding `O=C1CCc2ccc(OCCCCN3CCN(c4cccc(Cl)c4Cl)CC3)cc2N1` [Aripiprazole, 99%, Aripiprazole], in data set [1], the “Reported Solubility in water” value is “Insoluble”.
For Pyrethrin, in data set [2], the “Solubility … (more than 99%)” value is “Water Soluble”.
Take `CC[C@H](C)C(=O)O[C@H]1CCC=C2C=C[C@H](C)[C@H](CC[C@@H]3C[C@@H](O)CC(=O)O3)[C@H]21` [Mevastatin]: the “Reported Solubility in water” value in data set [1] is recorded as “Insoluble”.
As for `C[C@@H](O[C@H]1OCCN(Cc2n[nH]c(=O)[nH]2)[C@H]1c1ccc(F)cc1)c1cc(C(F)(F)F)cc(C(F)(F)F)c1` [Aprepitant], in data set [1], the “Reported Solubility in water” value is listed as “Insoluble”.
Turning to `N[C@@H](Cc1ccc(N(CCCl)CCCl)cc1)C(=O)O` [Melphalan(cancer), Melphalan], in data set [2], the “Solubility … (more than 99%)” value is on record as “Water Soluble”.
As for `CC(=O)Nc1ccc(O)cc1` [Paracetamol], in data set [1], the “Reported Solubility in water” value is reported as “Insoluble”.
With `CS(=O)(=O)OCCCCOS(C)(=O)=O` [Busulphan], the “Reported Solubility in water” value in data set [1] is listed as “Insoluble”.
For the compound Ivermectin, in data set [2], the “Solubility … (more than 99%)” value is on record as “Water Soluble”.
